Data reported in patent publication US20180207078A1, “COMBINATION OF NATURAL SUBSTANCES COMPRISING AT LEAST ONE […] ACID AND AT LEAST ONE GUGGULSTERONE, AND USE THEREOF FOR COSMETIC APPLICATIONS” (OntoChem, GmbH, priority 2015, published 2018).

Legend:
caspases 3/7 = experiment: Caspase-Glo 3/7 apoptosis assay in mature adipocytes; assay type: cell-based, mouse; settings: 24 hours
Protocol: In order to evaluate a possible induction of apoptosis in mature adipocytes as a result of the treatment with (Z)-guggulsterone and/or glycyrrhetinic acid, a Caspase-Glo® 3/7 assay kit (Promega, Mannheim, Germany) was used.
3T3-L1 cells were seeded into 96-well plates (5,000-10,000 cells/well) and, as described above, cultivated to maturity (D8). On D8, the mature adipocytes were incubated for 24 hours under standard culture conditions with guggulsterone and/or glycyrrhetinic acid (1-250 μM). Cells treated as follows served as controls: (1) pure cell culture medium (undifferentiated control), (2) pure differentiation medium (untreated control), and (3) DMSO, corresponding to the highest DMSO concentration in the test batches, in differentiation medium (DMSO control). After 24 hours, the incubation medium was discarded, the cells were washed with 100 μl/well of DMEM, and then 150 μl/well of Caspase-Glo® 3/7 reagent in DMEM (1:1, v/v) were added. After incubation for 2 hours at room temperature, the luminescence signal of the reagent was detected by means of a Synergy 2 plate reader (BioTek, Winooski, USA).
The combination of 250 μM of each of the two compounds brought about an increase in caspase 3/7 activity by a factor of 3.5-4.0 as compared with untreated cells (FIG. 2).

[1] = Resazurin-based cell viability assay; parameters: species or system mouse; settings: mouse, mature 3T3-L1 adipocytes; 250 μM (of each compound), 24-hour treatment, 1 μM dexamethasone stimulation; read-out: reduction of cell viability (number of mature adipocytes)
Protocol: (§1) The cell viability of mature adipocytes after treatment with a test compound was measured by means of a fluorimetric Resazurin-based assay. Vital, that is to say metabolically active, cells are capable of converting Resazurin into the fluorescent derivative Resorufin (Strotmann U. J. et al., Ecotox. Environ. Safety 1993, 25, 79-89). 3T3-L1 cells were seeded into 96-well plates (5,000-10,000 cells/well) and, as described above, cultivated to maturity (D8). […] Cells treated as follows served as controls: (1) pure cell culture medium (undifferentiated control), (2) pure differentiation medium (untreated control), (3) DMSO, corresponding to the highest DMSO concentration in the test batches, in differentiation medium (DMSO control), and (4) 150 μg/ml digitonin in DMEM (cell death control). After 24 hours, the incubation medium was discarded and the cells were washed with 100 μl/well of DMEM and then incubated for 2 hours under standard culture conditions with 50 μl/well of Resazurin solution (60 μM in DMEM). Finally, the Resorufin fluorescence was detected by means of a Synergy 2 plate reader (BioTek, Winooski, USA) (excitation: 540 nm, emission: 590 nm, mirror: 550 nm). […] Finally, the cell viability, as a measure of the number and fitness of the cells, was measured by means of a Resazurin assay.

3T3-L1 mouse fibroblasts = experiment: Nile red assay of cellular lipid content during adipogenesis; assay type: cell-based; settings: for Lipid content: treatment D0-D2, read on D6, stimulated untreated cells = 100%, unstimulated = 0%; for IC50: Mus musculus, 3T3-L1, 144 h, treatment for the entire 6-day adipocyte differentiation (D0-D6), read-out: IC50 value for the inhibition of cellular lipid accumulation
Protocol: The 3T3-L1 mouse fibroblasts were cultivated in Dulbecco's modified Eagle's medium (DMEM) incl. 10% foetal calf serum (FCS) and 2 mM L-glutamine at 37° C., 95% humidity and 5% CO2.
Adipocyte differentiation and maturation was induced as described (Yang J. Y. et al., Obesity 2008, 16, 16-22; Shugart E. C. and Umek R. M., Cell Growth & Differentiation 1997, 8, 1091-1098). The cells were stimulated not only with dexamethasone, as is generally conventional, but also with cortisol, which is more physiological.
The cells were seeded into 96-well plates and cultivated to confluence. Two days after reaching cell confluence (D0=day 0), cell differentiation was induced by adding DMEM with 10% FCS, 167 nM insulin, […] and 1 μM dexamethasone or 200 nM cortisol for two days (D2). The cells were then cultivated for a further two days in DMEM with 10% FCS and 167 nM insulin (D4), followed by cultivation in DMEM/10% FCS for a further four days (D8). Ultimately, >20-30% of the cells were mature adipocytes with accumulated lipid stores.
As an indicator for the degree of adipogenesis, the lipid content of the cells (intracellular lipid droplets) was detected by means of the lipophilic colour reagent Nile red, as described (Yang J. Y. et al., Obesity 2008, 16, 16-22; Greenspan P., The Journal of Cell Biology 1985, 100, 965-973). 3T3-L1 cells (5,000-10,000 cells/well), after reaching confluence, were cultivated for a further two days in 96-well plates (D0). The cells were then treated with guggulsterone and/or glycyrrhetinic acid, individually or in combination, for days D0-D2, D2-D4, D4-D6 and D0-D6 of the adipogenesis (concentration range: 1-200 μM). The medium, with or without test substance(s), was changed or renewed every two days. Cells treated as follows served as controls: (1) pure cell culture medium (undifferentiated control), (2) pure differentiation medium (untreated control), and (3) DMSO, corresponding to the highest DMSO concentration in the test batches, in differentiation medium (DMSO control).
On day 6 (D6), the intracellular lipid accumulation (lipid droplets) was quantified by means of a Nile red assay. To that end, the cell medium was discarded and the cells were washed with 100 μl/well of PBS (pH 7.4). The cells were then incubated for 20 minutes at room temperature with 50 μl/well of Nile red in PBS (10 μg/ml). The lipid content was determined fluorometrically using a Synergy 2 plate reader (BioTek, Winooski, USA) (excitation: 485 nm, emission: 560 nm, mirror: 550 nm). Nile red selectively stains neutral lipids, for example triacylglycerides in intracellular droplets.
The lipid content, that is to say the storage of triacylglycerides in intracellular lipid droplets, is an indicator for the degree of adipogenesis. […] Since the staining reagent Nile red, upon excitation at 485 nm and fluorescence detection at 560 nm, is very selective for neutral lipids, it was thus possible specifically to measure the intracellular accumulation of triacylglycerides during advancing adipogenesis.
On day 6 of the adipogenesis (D6), the accumulation of intracellular lipid droplets was measured fluorometrically by means of a Nile red assay (excitation: 485 nm; emission: 560 nm; 550 nm mirror). The data were normalised and the lipid accumulation is given in percent; unstimulated cells were used as 0% reference, and stimulated but untreated cells were used as 100% reference.

3T3 pre-adipocytes = experiment: Fluorescence microscopy of lipid droplets (Nile red/DAPI); assay type: cell-based, mouse; settings: 100 μM, D0-D6, stimulation with 1 μM dexamethasone
Protocol: […] The incubation medium was then discarded and the cells were washed with PBS and stained with Nile red (10 μg/ml) and DAPI (1 μg/ml) in 50 μl/well of PBS for 20 minutes at room temperature. After removal of the staining solution, the cells were washed with PBS and fixed with 4% paraformaldehyde in PBS for 30 minutes at room temperature. Finally, the cells were washed three times with PBS and mounted on the object slide by means of Fluorescence Mounting Medium (Dako, Carpinteria, USA). The fluorescence microscopy images were taken by using a Zeiss Axio Observer.Z1 with ApoTome (Carl Zeiss Microlmaging, Jena, Germany) using the DAPI and GFP filter settings.

mature 3T3 adipocytes = experiment: Resazurin-based cell viability assay; parameters: species or system mouse; settings: up to 250 μM, 24-hour treatment, 1 μM dexamethasone stimulation
Protocol: as §1

[2] = cited from earlier work

Row | Compound | increase in caspase 3/7 activity as compared with untreated cells (caspases 3/7; 250 μM (of each compound)) | cytotoxicity at 24 h, 250 μM [1] | Lipid content (3T3-L1 mouse fibroblasts; 10 μM) | Lipid content (3T3-L1 mouse fibroblasts; 40 μM) | Lipid content (3T3-L1 mouse fibroblasts; 100 μM) | IC50 (3T3-L1 mouse fibroblasts) | lipid droplets versus stimulated untreated cells (3T3 pre-adipocytes) | induction of caspases 3/7 (caspases 3/7; dexamethasone or cortisol stimulation) | effect on cell viability (mature 3T3 adipocytes) | systemic administration that is not safe [2]
1 | CC1(C)[C@@H](O)CC[C@]2(C)[C@H]3C(=O)C=C4[C@@H]5C[C@@](C)(C(=O)O)CC[C@]5(C)CC[C@@]4(C)[C@]3(C)CC[C@@H]12 [18β-glycyrrhetinic acid] | 2.5-3.0 factor | 28% | 98% | 91% | 7% | ~20 µM | significantly fewer and smaller lipid droplets | – | – | –
2 | C/C=C1\C(=O)C[C@H]2[C@@H]3CCC4=CC(=O)CC[C@]4(C)[C@H]3CC[C@]12C [(Z)-guggulsterone] | – | – | 71% | 26% | 5% | ~5 µM | significantly fewer and smaller lipid droplets | no induction of caspases 3/7 | did not impair the cell viability | –
3 | guggulsterone | – | – | – | – | – | – | – | – | – | more than 30 mg/day
